Results from ChEMBL document CHEMBL5528016, “Design, synthesis and evaluation of novel deferasirox derivatives with high antifungal potency in vitro and in vivo” (Eur J Med Chem, 2024).
≈ marks a conversion by molar mass, not a printed value. Calls of active or inactive are those of the source. The rule behind the calls is not given here.

Columns and labels:
Nakaseomyces glabratus [1] = test: Antifungal activity against Candida glabrata 537 assessed as reduction in fungal growth incubated for 72 hrs by broth microdilution method; type: functional
Candida tropicalis = test: Antifungal activity against Candida tropicalis 2718 assessed as reduction in fungal growth incubated for 72 hrs by broth microdilution method; type: functional
[Candida] auris = Antifungal activity against Candida auris D12 assessed as reduction in fungal growth incubated for 72 hrs by broth microdilution method; type: functional; conditions: Candidozyma auris
Cryptococcus neoformans [2] = test: Antifungal activity against Cryptococcus neoformans H99 assessed as reduction in fungal growth incubated for 72 hrs by broth microdilution method; type: functional
Pichia kudriavzevii = test: Antifungal activity against Pichia kudriavzevii 4946 assessed as reduction in fungal growth incubated for 72 hrs by broth microdilution method; type: functional
Candida albicans = test: Antifungal activity against Candida albicans SC5314 assessed as reduction in fungal growth incubated for 72 hrs by broth microdilution method; type: functional
Cryptococcus neoformans [3] = test: Potency index, ratio of deferasirox MIC to test compound for antifungal activity against Cryptococcus neoformans H99 incubated for 72 hrs by broth microdilution method; type: functional
Candida parapsilosis = test: Antifungal activity against Candida parapsilosis ATCC 22019 assessed as reduction in fungal growth incubated for 72 hrs by broth microdilution method; type: functional; conditions: Lodderomyces parapsilosis
[4] = Antifungal activity against Cryptococcus gattii VGI WM179 assessed as reduction in fungal growth incubated for 72 hrs by broth microdilution method; type: functional
[5] = Antifungal activity against Cryptococcus gattii VGI SCZ20024 assessed as reduction in fungal growth incubated for 72 hrs by broth microdilution method; type: functional
[6] = Hemolytic activity in rabbit Red blood cell at 2 ug/ml relative to control; type: toxicity, cell-based, Oryctolagus cuniculus, Erythrocyte; conditions: red blood cells, at 2 µg/mL, read-out: Activity
Nakaseomyces glabratus [7] = test: Antifungal activity against Candida glabrata 203 assessed as reduction in fungal growth incubated for 48 hrs by broth microdilution method; type: functional
HUVEC = test: Cytotoxicity against HUVEC cells assessed as reduction in cell viability at 0.25 to 64 ug/ml incubated for 2 hrs by CCK-8 assay; type: toxicity, cell-based; conditions: human, dose 0.25-64 µg/ml
[8] = Antifungal activity against Cryptococcus gattii VGI SCZ20031 assessed as reduction in fungal growth incubated for 72 hrs by broth microdilution method; type: functional
Nakaseomyces glabratus [9] = test: Antifungal activity against Candida glabrata Y10-15 assessed as reduction in fungal growth incubated for 48 hrs by broth microdilution method; type: functional
[10] = Hemolytic activity in rabbit Red blood cell at 64 ug/ml relative to control; type: toxicity, cell-based, Oryctolagus cuniculus, Erythrocyte; conditions: red blood cells, at 64 µg/mL, read-out: Activity
Cryptococcus neoformans [11] = test: Antifungal activity against Cryptococcus neoformans HN1 assessed as reduction in fungal growth incubated for 72 hrs by broth microdilution method; type: functional
Caco-2 = test: Cytotoxicity against human Caco-2 cells assessed as reduction in cell viability at 0.25 to 64 ug/ml incubated for 2 hrs by CCK-8 assay; type: toxicity, cell-based; conditions: caco-2, 2 h, dose 0.25-64 µg/ml
Nakaseomyces glabratus [12] = test: Antifungal activity against Candida glabrata YC1-34 assessed as reduction in fungal growth incubated for 48 hrs by broth microdilution method; type: functional
Cryptococcus neoformans [13] = test: Antifungal activity against Cryptococcus neoformans 444 assessed as reduction in fungal growth incubated for 72 hrs by broth microdilution method; type: functional
Cryptococcus neoformans [14] = test: Antifungal activity against Cryptococcus neoformans HN15 assessed as reduction in fungal growth incubated for 72 hrs by broth microdilution method; type: functional
[15] = Antifungal activity against Cryptococcus gattii VGI WM178 assessed as reduction in fungal growth incubated for 72 hrs by broth microdilution method; type: functional
Cryptococcus neoformans [16] = test: Antifungal activity against Cryptococcus neoformans BJ3 assessed as reduction in fungal growth incubated for 72 hrs by broth microdilution method; type: functional
Nakaseomyces glabratus [17] = test: Antifungal activity against Candida glabrata 337 assessed as reduction in fungal growth incubated for 48 hrs by broth microdilution method; type: functional
[18] = Antifungal activity against Cryptococcus gattii VGI E566 assessed as reduction in fungal growth incubated for 72 hrs by broth microdilution method; type: functional
[19] = Toxicity against ICR mouse assessed as inflammatory cell infiltration at 50 mg/kg, ip administered at 24 hrs interval for 7 days by hematoxylin and eosin staining based analysis; type: organism-based; conditions: in vivo, 168 h, time 7 day
[20] = Toxicity against ICR mouse assessed as increase in monocytes at 50 mg/kg, ip administered at 24 hrs interval for 7 days by hematoxylin and eosin staining based analysis; type: organism-based; conditions: in vivo, 168 h, time 7 day
Cryptococcus neoformans [21] = test: Antifungal activity against Cryptococcus neoformans 20 assessed as reduction in fungal growth incubated for 72 hrs by broth microdilution method; type: functional
[22] = Metabolic stability in mouse liver microsomes assessed as half life; type: ADME, Microsome
[23] = Toxicity against ICR mouse assessed as enlargement of cytoplasm in hepatocytes at 50 mg/kg, ip administered at 24 hrs interval for 7 days by hematoxylin and eosin staining based analysis; type: organism-based; conditions: in vivo
[24] = Metabolic stability in mouse liver microsomes assessed as intrinsic clearance; type: ADME, Microsome; conditions: read-out: CLH
[25] = Toxicity against ICR mouse assessed as glomerular enlargement at 50 mg/kg, ip administered at 24 hrs interval for 7 days by hematoxylin and eosin staining based analysis; type: organism-based; conditions: in vivo, 168 h, time 7 day
[26] = Metabolic stability in mouse liver microsomes assessed as elimination rate constant; type: ADME, Microsome
[27] = Toxicity against ICR mouse assessed as hypertrophy at 50 mg/kg, ip administered at 24 hrs interval for 7 days by hematoxylin and eosin staining based analysis; type: organism-based; conditions: in vivo, 168 h, time 7 day
[28] = Toxicity against ICR mouse assessed as enlargement of nucleus in hepatocytes at 50 mg/kg, ip administered at 24 hrs interval for 7 days by hematoxylin and eosin staining based analysis; type: organism-based; conditions: in vivo, 168 h, time 7 day
[29] = Toxicity against ICR mouse assessed as reduction in lipid droplet at 50 mg/kg, ip administered at 24 hrs interval for 7 days by hematoxylin and eosin staining based analysis; type: organism-based; conditions: in vivo, 168 h, time 7 day
Cryptococcus neoformans [30] = test: Antifungal activity against Cryptococcus neoformans H99 infected in C57BL/6J mouse assessed as reduction in fungal burden in brain at 2 mg/kg, ip; type: functional, organism-based
Cryptococcus neoformans [31] = test: Antifungal activity against Cryptococcus neoformans assessed as increase in MIC incubated for 72 hrs in presence of FeCl3 by broth microdilution method; type: functional, organism-based
Erythrocyte = test: Hemolytic activity in rabbit Red blood cell at 64 ug/ml; type: toxicity, cell-based, Oryctolagus cuniculus; conditions: dose 64 µg/ml
[32] = Nephrotoxicity in ICR mouse at 50 mg/kg, ip administered at 24 hrs interval for 7 days by hematoxylin and eosin staining based analysis; type: toxicity, organism-based; conditions: in vivo, 168 h, time 7 day
[33] = Toxicity against ICR mouse assessed as reduction in lipid droplet at 20 mg/kg, ip administered at 24 hrs interval for 7 days by hematoxylin and eosin staining based analysis; type: organism-based; conditions: in vivo, 168 h, time 7 day
Cryptococcus neoformans [34] = test: Antifungal activity against Cryptococcus neoformans H99 infected in C57BL/6J mouse assessed as reduction in fungal burden in lung at 10 mg/kg, ip; type: functional, organism-based
Cryptococcus neoformans [35] = test: Antifungal activity against Cryptococcus neoformans H99 infected in C57BL/6J mouse assessed as reduction in fungal burden in brain at 10 mg/kg, ip; type: functional, organism-based
Cryptococcus neoformans [36] = test: Antifungal activity against Cryptococcus neoformans H99 infected in C57BL/6J mouse assessed as reduction in fungal burden in lung at 2 mg/kg, ip; type: functional, organism-based

SMILES | MIC (Nakaseomyces glabratus [1]) [µg/mL] | MIC (Candida tropicalis) [µg/mL] | MIC ([Candida] auris) [µg/mL] | MIC (Cryptococcus neoformans [2]) [µg/mL] | MIC (Pichia kudriavzevii) [µg/mL] | MIC (Candida albicans) [µg/mL] | MIC (Candida parapsilosis) [µg/mL] | MIC [4] [µg/mL] | MIC [5] [µg/mL] | MIC (Nakaseomyces glabratus [7]) [µg/mL] | MIC [8] [µg/mL] | MIC (Nakaseomyces glabratus [9]) [µg/mL] | MIC (Cryptococcus neoformans [11]) [µg/mL] | MIC (Nakaseomyces glabratus [12]) [µg/mL] | MIC (Cryptococcus neoformans [13]) [µg/mL] | MIC (Cryptococcus neoformans [14]) [µg/mL] | MIC [15] [µg/mL] | MIC (Cryptococcus neoformans [16]) [µg/mL] | MIC (Nakaseomyces glabratus [17]) [µg/mL] | MIC [18] [µg/mL] | other results
COC(=O)CCNC(=O)c1ccc(-n2nc(-c3ccccc3O)nc2-c2ccccc2O)cc1 | < 0.125 | 0.125 (≈ 0.273 µM) | > 64 | 0.5 (≈ 1.09 µM) | 4 (≈ 8.72 µM) | > 64 | > 64 |  |  |  |  |  |  |  |  |  |  |  |  |  | Ratio (Cryptococcus neoformans [3]): 4
C[C@@H]1[C@H](O)[C@@H](C)/C=C/C=C/C=C/C=C/C=C/C=C/C=C/[C@H](O[C@@H]2O[C@H](C)[C@@H](O)[C@H](N)[C@@H]2O)C[C@@H]2O[C@](O)(C[C@@H](O)C[C@@H](O)[C@H](O)CC[C@@H](O)C[C@@H](O)CC(=O)O[C@H]1C)C[C@H](O)[C@H]2C(=O)O [AMPHOTERICIN B] | < 0.125 | 1 (≈ 1.08 µM) | 8 (≈ 8.66 µM) |  |  | 1 (≈ 1.08 µM) | 0.5 (≈ 0.541 µM) | 1 (≈ 1.08 µM) | 1 (≈ 1.08 µM) | 16 (≈ 17.3 µM) | 1 (≈ 1.08 µM) | 2 (≈ 2.16 µM) | 1 (≈ 1.08 µM) | 1 (≈ 1.08 µM) | 2 (≈ 2.16 µM) | 8 (≈ 8.66 µM) | 1 (≈ 1.08 µM) | 2 (≈ 2.16 µM) | 0.5 (≈ 0.541 µM) | 4 (≈ 4.33 µM) | hemolysis at 2 ug/ml [6]: > 10%; Activity (HUVEC): Non-Toxic; hemolysis at 64 ug/ml [10]: 100%; Activity (Caco-2): Non-Toxic
CC(C)(O)CCNC(=O)c1ccc(-n2nc(-c3ccccc3O)nc2-c2ccccc2O)cc1 | < 0.125 | 4 (≈ 8.72 µM) | > 64 | 1 (≈ 2.18 µM) | 4 (≈ 8.72 µM) | 16 (≈ 34.9 µM) | > 64 |  |  |  |  |  |  |  |  |  |  |  |  |  | Ratio (Cryptococcus neoformans [3]): 2
O=C(O)c1ccc(-n2nc(-c3ccccc3O)nc2-c2ccccc2O)cc1 [DEFERASIROX] | 0.5 (≈ 1.34 µM) | 8 (≈ 21.4 µM) | > 64 | 2 (≈ 5.36 µM) | 2 (≈ 5.36 µM) | > 64 | 32 (≈ 85.7 µM) | 8 (≈ 21.4 µM) | 2 (≈ 5.36 µM) | 2 (≈ 5.36 µM) | 2 (≈ 5.36 µM) | 0.5 (≈ 1.34 µM) | 4 (≈ 10.7 µM) | 0.25 (≈ 0.67 µM) | 8 (≈ 21.4 µM) | 2 (≈ 5.36 µM) | 8 (≈ 21.4 µM) | 8 (≈ 21.4 µM) | 0.5 (≈ 1.34 µM) | 8 (≈ 21.4 µM) | Activity [19]: Toxic; Activity [20]: Toxic; MIC (Cryptococcus neoformans [21]): 2 µg/mL (≈ 5.36 µM); half-life [22]: 3.9 h; Activity [23]: Toxic; microsomal CLint [24]: 5.94 µL/min/mg; Activity [25]: Toxic; k el [26]: 5e-05 s⁻¹; Activity [27]: Toxic; Activity [28]: Toxic; Activity [29]: Toxic
O=C(NC1CCS(=O)(=O)C1)c1ccc(-n2nc(-c3ccccc3O)nc2-c2ccccc2O)cc1 (stereo not drawn) | < 0.125 | 2 (≈ 4.08 µM) | > 64 | 0.25 (≈ 0.51 µM) | 0.25 (≈ 0.51 µM) | 4 (≈ 8.15 µM) | 64 (≈ 130 µM) | 0.5 (≈ 1.02 µM) | 0.25 (≈ 0.51 µM) | < 0.125 | < 0.125 | < 0.125 | < 0.125 | < 0.125 | 1 (≈ 2.04 µM) | < 0.125 | 0.25 (≈ 0.51 µM) | 0.5 (≈ 1.02 µM) | < 0.125 | 0.5 (≈ 1.02 µM) | Activity (Cryptococcus neoformans [30]): inactive; Activity (Cryptococcus neoformans [31]): inactive; Activity (HUVEC): Non-Toxic; Activity (Erythrocyte): Non-Toxic; MIC (Cryptococcus neoformans [21]): < 0.125 µg/mL; half-life [22]: 2.13 h; Activity (Caco-2): Non-Toxic; Activity [23]: Toxic; microsomal CLint [24]: 10.9 µL/min/mg; Activity [32]: Toxic; k el [26]: 8.33e-05 s⁻¹; Activity [33]: Toxic; Activity [27]: Toxic; Activity [28]: Toxic; Activity [29]: Toxic; Activity (Cryptococcus neoformans [34]): Active; Activity (Cryptococcus neoformans [35]): Active; Activity (Cryptococcus neoformans [36]): inactive
OC(Cn1cncn1)(Cn1cncn1)c1ccc(F)cc1F [FLUCONAZOLE] | 0.25 (≈ 0.816 µM) | < 0.125 | > 64 |  | 16 (≈ 52.2 µM) | 0.125 (≈ 0.408 µM) | 1 (≈ 3.27 µM) | 16 (≈ 52.2 µM) | 4 (≈ 13.1 µM) | > 64 | 4 (≈ 13.1 µM) | 4 (≈ 13.1 µM) | 2 (≈ 6.53 µM) | 2 (≈ 6.53 µM) | 16 (≈ 52.2 µM) | 4 (≈ 13.1 µM) | 16 (≈ 52.2 µM) | 8 (≈ 26.1 µM) | 2 (≈ 6.53 µM) | 32 (≈ 104 µM) | Activity (Erythrocyte): Non-Toxic; MIC (Cryptococcus neoformans [21]): 8 µg/mL (≈ 26.1 µM)
